We go through 24 compounds from patent US10125098B2, “Therapeutic compounds and methods of use thereof” (GENENTECH, INC., priority 2014, dated 2018).

Like-named read-outs stand apart in the source and are kept apart here. Some results are limits rather than exact numbers.

One data set has as its target T1, hNav1.7 (Homo sapiens, UniProt Q15858).
T1 construct: expressed in transfected cells
In words: Tritiated compound binding (LBA) to membranes from cells expressing hNav1.7 and the β1 subunit, competitive binding. Particulars: competitive binding vs 100 pM [3H]compound, 18 h, room temperature, membranes with hNav1.7 and β1 subunit. Summed up:
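Membranes from cells expressing hNav1.7 with β1 were incubated 18 h at room temperature with 100 pM tritiated formula (I) compound and increasing test compound, in 100 mM NaCl, 20 mM Tris HCl pH 7.4, 0.01% BSA.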

In another data set the target is T2, human NaV1.7 (Homo sapiens, UniProt Q15858).
T2 construct: permanently transfected with an expression vector containing the full-length cDNA coding for the desired human sodium channel α-subunit; expressed in transfected cells; host or cells: HEK-293
T2 sequence (Q15858 1-1977 isoform Q15858-3): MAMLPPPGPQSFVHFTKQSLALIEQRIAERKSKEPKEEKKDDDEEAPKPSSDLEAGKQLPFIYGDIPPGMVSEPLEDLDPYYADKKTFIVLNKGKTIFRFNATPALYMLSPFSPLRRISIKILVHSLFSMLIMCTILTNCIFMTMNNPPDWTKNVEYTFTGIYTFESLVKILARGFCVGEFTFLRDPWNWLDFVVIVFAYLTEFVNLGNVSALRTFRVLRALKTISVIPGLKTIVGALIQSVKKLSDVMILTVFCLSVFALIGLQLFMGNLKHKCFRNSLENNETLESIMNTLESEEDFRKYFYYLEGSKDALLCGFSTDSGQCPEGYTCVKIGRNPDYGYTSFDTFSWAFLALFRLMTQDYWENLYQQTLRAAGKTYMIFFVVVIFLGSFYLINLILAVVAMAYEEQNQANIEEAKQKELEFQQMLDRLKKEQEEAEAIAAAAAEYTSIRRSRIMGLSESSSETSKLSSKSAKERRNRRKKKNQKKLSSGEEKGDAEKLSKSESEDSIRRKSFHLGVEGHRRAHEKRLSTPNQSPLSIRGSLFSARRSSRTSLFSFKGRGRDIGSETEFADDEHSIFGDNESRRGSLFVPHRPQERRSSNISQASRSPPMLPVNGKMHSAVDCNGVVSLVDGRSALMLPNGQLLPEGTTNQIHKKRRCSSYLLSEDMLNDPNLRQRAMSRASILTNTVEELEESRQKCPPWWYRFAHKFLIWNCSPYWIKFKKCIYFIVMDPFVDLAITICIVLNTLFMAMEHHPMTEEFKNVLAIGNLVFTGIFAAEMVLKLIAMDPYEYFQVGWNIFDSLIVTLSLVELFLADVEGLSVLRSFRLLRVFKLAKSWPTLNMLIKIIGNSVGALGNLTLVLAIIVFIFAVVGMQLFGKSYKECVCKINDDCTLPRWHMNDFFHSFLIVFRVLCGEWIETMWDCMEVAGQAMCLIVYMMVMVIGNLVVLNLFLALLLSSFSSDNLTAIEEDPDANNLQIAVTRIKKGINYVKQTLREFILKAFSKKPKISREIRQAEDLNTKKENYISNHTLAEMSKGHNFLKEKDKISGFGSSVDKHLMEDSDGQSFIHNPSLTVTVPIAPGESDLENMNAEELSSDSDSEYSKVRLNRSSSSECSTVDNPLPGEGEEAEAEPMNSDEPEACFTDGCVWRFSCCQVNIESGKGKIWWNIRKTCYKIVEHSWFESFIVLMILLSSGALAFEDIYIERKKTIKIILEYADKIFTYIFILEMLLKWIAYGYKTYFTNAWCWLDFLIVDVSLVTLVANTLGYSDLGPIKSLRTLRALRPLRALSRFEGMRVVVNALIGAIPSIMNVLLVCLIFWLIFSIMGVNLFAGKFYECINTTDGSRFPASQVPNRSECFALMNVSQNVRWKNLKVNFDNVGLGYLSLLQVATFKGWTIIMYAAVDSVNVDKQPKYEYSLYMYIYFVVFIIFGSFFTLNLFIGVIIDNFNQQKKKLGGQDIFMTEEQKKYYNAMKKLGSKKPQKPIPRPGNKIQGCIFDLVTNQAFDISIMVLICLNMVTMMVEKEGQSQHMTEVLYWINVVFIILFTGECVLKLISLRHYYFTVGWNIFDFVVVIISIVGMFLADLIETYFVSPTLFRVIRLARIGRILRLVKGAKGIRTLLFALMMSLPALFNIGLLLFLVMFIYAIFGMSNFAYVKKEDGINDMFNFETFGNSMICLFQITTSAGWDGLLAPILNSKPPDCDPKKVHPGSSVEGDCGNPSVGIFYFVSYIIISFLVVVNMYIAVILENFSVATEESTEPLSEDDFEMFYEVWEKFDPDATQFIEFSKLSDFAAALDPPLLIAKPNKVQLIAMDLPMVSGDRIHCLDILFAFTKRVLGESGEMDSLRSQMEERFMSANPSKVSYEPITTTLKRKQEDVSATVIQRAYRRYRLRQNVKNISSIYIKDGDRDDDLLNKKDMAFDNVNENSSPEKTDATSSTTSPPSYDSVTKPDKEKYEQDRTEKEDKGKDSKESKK
T2 sequence (Q07699 19-218 partner): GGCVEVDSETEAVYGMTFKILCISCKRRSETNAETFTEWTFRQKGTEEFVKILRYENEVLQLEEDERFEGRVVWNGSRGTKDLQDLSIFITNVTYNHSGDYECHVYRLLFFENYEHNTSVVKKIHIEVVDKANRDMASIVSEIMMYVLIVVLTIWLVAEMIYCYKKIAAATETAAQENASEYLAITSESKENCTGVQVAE
Put plainly: Patch voltage clamp electrophysiology assay (EP), NaV1.7. The format is cell-based. To be noted: HEK-293 cells stably expressing NaV1.7 with β1 subunit; whole-cell patch clamp, membrane potential −60 mV (inactivated state). Summed up: (§1)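 HEK-293 cells stably expressing human α-subunit with β1; whole-cell patch clamp (PatchXpress or manual), ambient temperature, pH 7.4 external NaCl, CsF internal. Held at −60 mV (full inactivation), stepped to −150 mV for 20 ms, then test pulse; percent current decrease after compound wash-on taken as block.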
(In patch-clamp work, channel activity is measured electrically.)

The next data set has as its target T3, NaV1.5 (Homo sapiens, UniProt Q14524).
T3 construct: permanently transfected with an expression vector containing the full-length cDNA coding for the desired human sodium channel α-subunit; expressed in transfected cells; host or cells: HEK-293
In words: Patch voltage clamp electrophysiology assay (EP), NaV1.5. The format is cell-based. Particulars: HEK-293 cells stably expressing NaV1.5 with β1 subunit, whole-cell patch clamp, membrane potential −60 mV (inactivated state). Summed up:
as §1

[1] abbreviates: human, HEK-293 cells stably expressing human NaV1.5 with β1 subunit, pH 7.4.

T1 sequence (Q15858 1-1977 isoform Q15858-3): as the sequence (Q15858 1-1977 isoform Q15858-3) above
T1 sequence (Q07699 19-218 partner): as the sequence (Q07699 19-218 partner) above
T3 sequence (Q14524 whole entry): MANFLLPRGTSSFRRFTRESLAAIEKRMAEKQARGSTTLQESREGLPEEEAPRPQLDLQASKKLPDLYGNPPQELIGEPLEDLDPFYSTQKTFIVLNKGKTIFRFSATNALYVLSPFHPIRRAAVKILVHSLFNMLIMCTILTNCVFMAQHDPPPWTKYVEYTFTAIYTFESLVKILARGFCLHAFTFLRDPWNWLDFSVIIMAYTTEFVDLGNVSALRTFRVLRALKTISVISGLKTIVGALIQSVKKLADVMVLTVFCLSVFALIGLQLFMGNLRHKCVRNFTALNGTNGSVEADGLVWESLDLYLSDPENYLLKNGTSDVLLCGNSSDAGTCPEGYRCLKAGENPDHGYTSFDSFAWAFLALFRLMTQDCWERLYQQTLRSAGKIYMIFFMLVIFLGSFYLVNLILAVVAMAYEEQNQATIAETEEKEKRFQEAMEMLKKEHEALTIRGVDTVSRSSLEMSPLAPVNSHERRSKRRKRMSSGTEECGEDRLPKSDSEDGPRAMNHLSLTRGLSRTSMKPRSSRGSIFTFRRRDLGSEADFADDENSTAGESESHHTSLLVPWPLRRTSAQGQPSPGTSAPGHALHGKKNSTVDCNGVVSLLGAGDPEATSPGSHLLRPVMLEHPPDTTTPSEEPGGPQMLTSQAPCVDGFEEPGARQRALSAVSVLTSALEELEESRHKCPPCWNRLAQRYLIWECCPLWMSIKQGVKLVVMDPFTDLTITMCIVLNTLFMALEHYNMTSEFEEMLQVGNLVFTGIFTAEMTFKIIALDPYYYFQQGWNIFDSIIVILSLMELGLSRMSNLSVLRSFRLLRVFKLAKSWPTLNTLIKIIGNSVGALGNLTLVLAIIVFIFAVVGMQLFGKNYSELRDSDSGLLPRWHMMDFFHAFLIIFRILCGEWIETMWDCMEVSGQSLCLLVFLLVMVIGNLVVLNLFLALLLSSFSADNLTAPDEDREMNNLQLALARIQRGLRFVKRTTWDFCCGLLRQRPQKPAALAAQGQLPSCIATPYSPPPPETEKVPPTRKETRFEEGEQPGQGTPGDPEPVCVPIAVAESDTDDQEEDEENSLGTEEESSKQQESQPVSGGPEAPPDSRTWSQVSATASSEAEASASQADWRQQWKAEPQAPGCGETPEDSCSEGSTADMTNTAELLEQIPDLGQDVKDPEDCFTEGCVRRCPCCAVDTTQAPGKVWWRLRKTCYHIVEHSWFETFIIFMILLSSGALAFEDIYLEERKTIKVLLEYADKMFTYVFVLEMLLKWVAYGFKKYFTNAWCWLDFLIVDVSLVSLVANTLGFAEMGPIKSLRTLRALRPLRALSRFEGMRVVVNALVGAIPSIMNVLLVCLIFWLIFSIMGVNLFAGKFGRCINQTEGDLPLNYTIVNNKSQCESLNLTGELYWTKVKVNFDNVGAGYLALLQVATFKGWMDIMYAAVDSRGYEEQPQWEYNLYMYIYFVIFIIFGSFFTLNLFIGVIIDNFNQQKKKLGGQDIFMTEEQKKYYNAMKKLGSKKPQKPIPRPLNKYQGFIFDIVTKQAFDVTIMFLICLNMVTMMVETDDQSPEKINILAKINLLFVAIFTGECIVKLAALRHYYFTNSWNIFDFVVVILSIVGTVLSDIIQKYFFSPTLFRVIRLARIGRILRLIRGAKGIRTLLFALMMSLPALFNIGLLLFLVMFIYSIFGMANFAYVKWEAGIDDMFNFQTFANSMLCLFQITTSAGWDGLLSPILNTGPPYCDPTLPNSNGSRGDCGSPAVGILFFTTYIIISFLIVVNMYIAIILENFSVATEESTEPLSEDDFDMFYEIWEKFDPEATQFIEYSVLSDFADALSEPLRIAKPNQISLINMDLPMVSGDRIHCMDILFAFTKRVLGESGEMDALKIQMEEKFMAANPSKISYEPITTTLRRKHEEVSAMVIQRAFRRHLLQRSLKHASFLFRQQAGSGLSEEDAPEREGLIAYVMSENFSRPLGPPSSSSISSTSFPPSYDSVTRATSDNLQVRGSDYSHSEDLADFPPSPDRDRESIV

Take `CC1(C)[C@H]2CC[C@H](COc3cc(F)c(C(=O)N4CCC[C@H]4C(=O)O)cc3C3CC3)[C@@H]1C2` [Example 90, (S)-1-(5-cyclopropyl-4-(((1S, 2S, 5S)-6,6-dimethylbicyclo[3.1.1]heptan-2-yl)methoxy)-2-fluorobenzoyl)pyrrolidine-2-carboxylic acid]: the IC50 at hNav1.7 amounted to 21 nM; against human NaV1.7, 160 nM; at NaV1.5 (read-out: Nav1.5), 13000 nM.

Consider `CC[C@@H]1CCN(C(=O)c2cc(C3CC3)c(OCC34CC5CC(CC(C5)C3)C4)cc2F)[C@H]1C(=O)O` [Example 168b, (2R,3R)-1-[4-(1-adamantylmethoxy)-5-cyclopropyl-2-fluoro-benzoyl]-3-ethyl-pyrrolidine-2-carboxylic acid], for which the IC50 on hNav1.7 came out at 180 nM; against human NaV1.7 it was 1300 nM; at NaV1.5 (read-out: Nav1.5), 8200 nM.

As to `C[C@H]1OCN(C(=O)c2cc(C3CC3)c(OCC3CCN([C@@H](C)c4cc(Cl)cc(Cl)c4)CC3)cc2F)[C@@H]1C(=O)O` [Example 164, (4S,5R)-3-[5-cyclopropyl-4-[[1-[(1S)-1-(3,5-dichlorophenyl)ethyl]-4-piperidyl]methoxy]-2-fluoro-benzoyl]-5-methyl-oxazolidine-4-carboxylic acid], the IC50 on hNav1.7 was determined as 25 nM; at human NaV1.7, 62 nM; on NaV1.5 (read-out: Nav1.5), 13000 nM.

On to `C[C@@H]1C[C@@H](C(=O)O)N(C(=O)c2cc(C3CC3)c(OCC34CC5CC(CC(C5)C3)C4)cc2F)C1` [Example 150, (2S,4R)-1-[4-(1-adamantylmethoxy)-5-cyclopropyl-2-fluoro-benzoyl]-4-methyl-pyrrolidine-2-carboxylic acid], for which the figures for the IC50 on hNav1.7, at human NaV1.7 and on NaV1.5 (read-out: Nav1.5) were 85 nM, 1200 nM and 19000 nM, respectively.

Consider `O=C(NC(C(=O)O)C(F)(F)F)c1cc(C2CC2)c(OCC23CC4CC(CC(C4)C2)C3)cc1F` (stereo not drawn) [Example 223, 2-(4-(adamantan-1-ylmethoxy)-5-cyclopropyl-2-fluorobenzamido)-3,3,3-trifluoropropanoic acid], for which the values for the IC50 on hNav1.7, at human NaV1.7 and on NaV1.5 (read-out: Nav1.5) were 910 nM, 2900 nM and 3900 nM, respectively.

For the compound `O=C(O)[C@@H]1CCCN1C(=O)c1cc(C2CC2)c(COc2cc(Cl)cc(Cl)c2)s1` [Example 134, (S)-1-(4-cyclopropyl-5-((3,5-dichlorophenoxy)methyl)thiophene-2-carbonyl)pyrrolidine-2-carboxylic acid], the IC50 at hNav1.7 stood at 72 nM; on human NaV1.7, 630 nM; at NaV1.5 (read-out: Nav1.5) it was 7100 nM.

For `O=C(O)[C@@H]1C[C@@H](F)CN1C(=O)c1cc(C2CC2)c(OCC2CCN([C@@H](c3cc(Cl)cc(Cl)c3)C(F)(F)F)CC2)cc1F` (single isomer, unassigned) [Example 140b], the IC50 on hNav1.7 worked out at 21 nM; against human NaV1.7 it was 160 nM; at NaV1.5 (read-out: Nav1.5), 3700 nM.

Regarding `C[C@]1(COc2cc(F)c(C(=O)N3CCC[C@H]3C(=O)O)cc2C2CC2)CCN(c2cc(C(F)(F)F)c(Cl)cn2)C1` [Example 135, (S)-1-(4-(((S)-1-(5-chloro-4-(trifluoromethyl)pyridin-2-yl)-3-methylpyrrolidin-3-yl)methoxy)-5-cyclopropyl-2-fluorobenzoyl)pyrrolidine-2-carboxylic acid], the figures for the IC50 on hNav1.7, on human NaV1.7 and on NaV1.5 (setting [1]) were 390 nM, 2600 nM and not below 30000 nM, respectively.

As to `CC1(COc2cc(F)c(C(=O)N[C@H](C(=O)O)C3CC3)cc2C2CC2)CN([C@@H](c2ccccc2)c2cc(Cl)cc(Cl)c2)C1` (single isomer, unassigned) [Example 114], the IC50 on hNav1.7 was 20 nM; against human NaV1.7, 1700 nM; at NaV1.5 (read-out: Nav1.5), 13000 nM.

For the compound `O=C(O)[C@@H]1[C@H](F)CCN1C(=O)c1cc(C2CC2)c(OCC23CC4CC(CC(C4)C2)C3)cc1F` [Example 63, (2R, 3R)-1-(4-((adamantan-1-yl)methoxy)-5-cyclopropyl-2-fluorobenzoyl)-3-fluoropyrrolidine-2-carboxylic acid], the IC50 at hNav1.7 turned out to be 170 nM; at human NaV1.7, 980 nM; at NaV1.5 (read-out: Nav1.5) it was 18000 nM.

Turning to `O=C(O)[C@@H]1CCCN1C(=O)c1cc(C2CC2)c(COc2cnc(OCC(F)(F)C(F)F)c(C3CC3)c2)cc1F` [Example 184, (S)-1-(5-cyclopropyl-4-(((5-cyclopropyl-6-(2,2,3,3-tetrafluoropropoxy)pyridin-3-yl)oxy)methyl)-2-fluorobenzoyl)pyrrolidine-2-carboxylic acid], the IC50 on hNav1.7 came to 460 nM; against human NaV1.7 it was 1300 nM; on NaV1.5 (read-out: Nav1.5), 23000 nM.

On to `O=C(N[C@H](C(=O)O)C1CCC1)c1cc(C2CC2)c(OCC23CC4CC(CC(C4)C2)C3)cc1F` [Example 170, (2S)-2-[[4-(1-adamantylmethoxy)-5-cyclopropyl-2-fluorobenzoyl]amino]-2-cyclobutyl-acetic acid], for which the IC50 at hNav1.7 amounted to 260 nM; at human NaV1.7, 3800 nM; on NaV1.5 (read-out: Nav1.5), 3700 nM.

As to `CC1(COc2cc(F)c(C(=O)N3CCC[C@H]3C(=O)O)cc2C2CC2)CCC2(CC1)CC2` [Example 58, (5-cyclopropyl-2-fluoro-4-((6-methylspiro[2.5]octan-6-yl)-methoxy)benzoyl)-L-proline], the results for the IC50 on hNav1.7, at human NaV1.7 and on NaV1.5 (read-out: Nav1.5) were 83 nM, 630 nM and 21000 nM, respectively.

Turning to `O=C(N[C@H](C(=O)O)C1CC1)c1cc(C2CC2)c(OCC23CC4CC(CC(C4)C2)C3)cc1F` [Example 74, (S)-2-(4-(adamantan-1-ylmethoxy)-5-cyclopropyl-2-fluorobenzamido)-2-cyclopropylacetic acid], the results for the IC50 on hNav1.7, at human NaV1.7 and at NaV1.5 (read-out: Nav1.5) were 24 nM, 700 nM and 7500 nM, respectively.

As to `C[C@H](c1cc(Cl)cc(Cl)c1)N1CCC(C#N)(COc2cc(F)c(C(=O)N3C[C@H](F)C[C@H]3C(=O)O)cc2C2CC2)CC1` (single isomer, unassigned) [Example 126a], the IC50 at hNav1.7 was found to be 120 nM; against human NaV1.7, 2300 nM; on NaV1.5 (read-out: Nav1.5) it was 10000 nM.

For `O=C(N[C@H](C(=O)O)C1CC1)c1cc(C2CC2)c(OCC2CCN([C@H](c3ccccc3)c3cc(Cl)cc(Cl)c3)CC2)cc1F` (single isomer, unassigned) [Example 118], the IC50 turned out to be 21 nM on hNav1.7, 760 nM against human NaV1.7 and 15000 nM at NaV1.5 (read-out: Nav1.5).

As to `C[C@@H](c1cc(Cl)cc(Cl)c1)N1CCC(COc2cc(F)c(C(=O)N3C[C@H](Cl)C[C@H]3C(=O)O)cc2C2CC2)CC1` [Example 169, (2S,4R)-4-chloro-1-(5-cyclopropyl-4-((1-((S)-1-(3,5-dichlorophenyl)ethyl)piperidin-4-yl)methoxy)-2-fluorobenzoyl)pyrrolidine-2-carboxylic acid], the results for the IC50 on hNav1.7, against human NaV1.7 and at NaV1.5 (read-out: Nav1.5) were 91 nM, 780 nM and 13000 nM, respectively.

In the case of `CC[C@@H](C)[C@H](NC(=O)c1cc(Cl)c(Oc2cnc(OCC(C)C)c(Cl)c2)cc1F)C(=O)O` [Example 186, (2S,3R)-2-(5-chloro-4-((5-chloro-6-isobutoxypyridin-3-yl)oxy)-2-fluorobenzamido)-3-methylpentanoic acid], the IC50 was 350 nM at hNav1.7, 8300 nM at human NaV1.7 and 12000 nM on NaV1.5 (read-out: Nav1.5).

Turning to `O=C(O)[C@@H]1CCCN1C(=O)c1cc(C2CC2)c(CN2CC(Oc3cc(Cl)cc(Cl)c3)C2)cc1F` [Example 122, (5-cyclopropyl-4-((3-(3,5-dichlorophenoxy)azetidin-1-yl)methyl)-2-fluorobenzoyl)-L-proline], the IC50 on hNav1.7 was 430 nM; at human NaV1.7, 2000 nM; at NaV1.5 (setting [1]), not below 30000 nM.

As for `C[C@]1(COc2cc(F)c(C(=O)N3CCC[C@H]3C(=O)O)cc2C2CC2)CCN(Cc2cc(F)cc(Cl)c2)C1` (single isomer, unassigned) [Example 137b], the IC50 at hNav1.7 was 310 nM; at human NaV1.7, 2400 nM; on NaV1.5 (setting [1]), not below 30000 nM.

Consider `O=C(O)[C@@H]1C[C@@H](F)CN1C(=O)c1cc(C2CC2)c(OCC2CCN([C@@H](c3ccccc3)c3cc(Cl)cc(Cl)c3)CC2)cc1F` (single isomer, unassigned) [Example 125], for which the IC50 on hNav1.7 worked out at 16 nM; against human NaV1.7 it was 380 nM; at NaV1.5 (read-out: Nav1.5) it was 6200 nM.

In the case of `O=C(O)[C@@H]1CCCN1C(=O)c1cc(C2CC2)c(OCC23CC4CC(CC(C4)C2)C3)cc1F` [Example 1, (S)-1-(4-(adamantan-1-ylmethoxy)-5-cyclopropyl-2-fluorobenzoyl)pyrrolidine-2-carboxylic acid], the values for the IC50 on hNav1.7, on human NaV1.7 and on NaV1.5 (read-out: Nav1.5) were 19.6 nM, 13.5 nM and 3500 nM, respectively.

With `C[C@H]1[C@H](F)CN(C(=O)c2cc(C3CC3)c(OCC34CC5CC(CC(C5)C3)C4)cc2F)[C@@H]1C(=O)O` [Example 210b, (2S,3R,4S)-1-(4-(adamantan-1-ylmethoxy)-5-cyclopropyl-2-fluorobenzoyl)-4-fluoro-3-methylpyrrolidine-2-carboxylic acid], the IC50 came to 30 nM on hNav1.7, 810 nM against human NaV1.7 and 17000 nM at NaV1.5 (read-out: Nav1.5).

As for `CC1(COc2cc(F)c(C(=O)N3CCC[C@H]3C(=O)O)cc2C2CC2)CCC2(CC1)CC2(F)F` (stereo partly drawn) [Example 55, (5-cyclopropyl-4-((1,1-difluoro-6-methylspiro[2.5]octan-6-yl)methoxy)-2-fluorobenzoyl)-L-proline], the IC50 is 250 nM at hNav1.7, 790 nM on human NaV1.7 and 29000 nM at NaV1.5 (read-out: Nav1.5).
